Laboratory results published in US6693134B2, “Bicyclic aromatic chemokine receptor ligands” (Chemokine Therapeutics Corporation, priority 2001, dated 2004).

Legend:
CXCR-4 [1] = molecular target: T1, CXCR-4 (Homo sapiens, UniProt P61073); assay: Inhibition of SDF-1 induced intracellular [Ca2+]i mobilization in THP-1 cells; format: cell-based; set-up: endogenous in cells; host or cells: THP-1 cells; settings: Fura-2,AM loaded THP-1 cells; incubated 60 min prior to induction by 10 nM SDF-1
Procedure: A rapid, transient rise in the free cytosolic Ca^2+ concentration ([Ca^2+]i) is one of the events associated with the Chemokine mediated induction of the associated receptors and is assumed to be involved in many of the subsequent cellular reactions. Both Ca^2+ release from intracellular stores and Ca^2+ influx from the extracellular space contribute to the rise in [Ca^2+]i. […] Fura-2,AM loaded THP-1 cells were incubated with CTCM226 for 60 min prior to induction of [Ca^2+]i mobilization by 10 nM SDF-1. Results illustrate the effect of CTCM226 (1) on SDF-1 induced Ca^2+ mobilization.
In accordance with this aspect of the invention, the naphthoic acid derivative, such as compound 1 or corresponding salts may be used for the treatment of a wide range of inflammatory diseases such as gout, arthritis, osteoarthritis, rheumatoid arthritis, and ARDS.

CXCR-4 [2] = molecular target: T1, CXCR-4; assay: Inhibition of binding of I125 labeled SDF-1 to CXCR-4 receptor; settings: I125 labeled SDF-1 as competitor ligand
Procedure: This example discloses the ability of compounds of the invention, such as naphthoic acid derivatives, such as CTCM226 (1), to inhibit binding of SDF-1 to CXCR-4 receptor. The binding studies were conducted using I^125 labeled SDF-1 as competitor ligand.

T1 sequence (P61073 whole entry): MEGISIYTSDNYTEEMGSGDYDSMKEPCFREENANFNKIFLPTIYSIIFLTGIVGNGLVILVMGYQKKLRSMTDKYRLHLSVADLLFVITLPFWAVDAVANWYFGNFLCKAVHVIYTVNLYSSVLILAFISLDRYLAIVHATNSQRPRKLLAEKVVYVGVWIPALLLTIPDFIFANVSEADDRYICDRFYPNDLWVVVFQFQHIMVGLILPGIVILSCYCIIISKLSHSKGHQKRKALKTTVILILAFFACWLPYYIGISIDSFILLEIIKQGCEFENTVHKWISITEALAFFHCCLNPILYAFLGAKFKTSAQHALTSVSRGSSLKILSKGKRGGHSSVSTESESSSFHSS

## O=C(O)c1cc2ccccc2cc1O [Compound 1, 3-Hydroxy-2-naphthoic acid]
CXCR-4 [1]
  IC50: 0.6 µM
CXCR-4 [2]
  IC50: 150 µM
